Columns and labels:
Assay type in all cases: in vivo
[1] = test system: Heliothis virescens, egg, tobacco budworm; test: Tobacco budworm egg test, dipped cotton leaf and eggs; set-up: key: 0: no effect; 10-25% kill; 26-35% kill; 36-45% kill; 46-55% kill; 56-65% kill; 66-75% kill; 76-85% kill; 86-99% kill; 9: 100% kill; conditions: mortality rating after 3 days
Experimental: (§1) Test solutions are prepared by dissolving the test compound in a 35% acetone in water mixture to give a concentration of 10,000 ppm. Subsequent dilutions are made with water as needed.
Heliothis virescens, egg, tobacco budworm
A young cotton leaf about 6-7cm in length is dipped in an agitated test suspension for about 3 seconds. Eggs are collected on a cheesecloth and the cloth is cut into 10-20mm squares, each containing approximately 50-100 eggs which are 6-30 hours old. The egg-containing cheesecloth square is similarly dipped in a test suspension and placed on a treated cotton leaf. The combination is dried in a hood and then placed in an 8 ounce Dixie® cup #2168-ST (240ml volume, 6cm tall, 9.5cm top diameter, 8.0cm bottom diameter) into which a 5cm length of damp dental wick has been placed. The cup is covered with a clear plastic lid and held for 3 days, after which mortality counts are made.
(§2) All of the above tests are rated according to the rating scale shown below.

[2] = test system: Aphis fabae, mixed instar, bean aphid; test: Bean aphid spray test on nasturtium; set-up: key: 0: no effect; 10-25% kill; 26-35% kill; 36-45% kill; 46-55% kill; 56-65% kill; 66-75% kill; 76-85% kill; 86-99% kill; 9: 100% kill; conditions: 100 ppm
Experimental: as §1
Aphis fabae, mixed instar, bean aphid
Pots containing single nasturtium plants (Tropaeolum sp.) about 5 cm tall are infested with about 100-200 aphids one day prior to treatment. Each pot is sprayed with the test solution for 2 revolutions of a 4 rpm turntable in a hood, using a #154 DeVilbiss atomizer. The spray tip is held about 15 cm from the plant and the spray directed so as to give complete coverage of the plants and the aphids. The sprayed pots are set on their sides on white enamel trays and mortality estimates are made after 2 days.
as §2

[3] = test system: Spodoptera eridania, 3rd instar larvae, southern armyworm; test: Southern armyworm systemic uptake (stem systemic) test; set-up: key: 0: no effect; 10-25% kill; 26-35% kill; 36-45% kill; 46-55% kill; 56-65% kill; 66-75% kill; 76-85% kill; 86-99% kill; 9: 100% kill; conditions: cut stem in emulsion 3 days
Source text: Spodoptera eridania, systemic uptake, 3rd instar larvae, southern armyworm
Subsequent 10-fold dilutions are made with water as needed. Sieva limabean plants, with the primary leaves expanded to a length of 7-8 cm, are cut off at least 3 cm above the soil level to avoid contamination with soil bacteria which will cause decay of the stem during the test. The cut stem is placed in the test emulsion and wrapped with a bit of cotton to hold the stem off the bottom of the bottle and to limit evaporation. The treated stem is thus maintained for 3 days at 27° C to allow the test compound to be taken up into the plant. Following this, one leaf is removed from the plant and placed in a 100 x 10 mm petri dish with 10 southern armyworms as described above. Mortality counts and observations of feeding damage are made 3 and 5 days later.
as §2

[4] = test system: Tetranychus urticae (OP-resistant strain), 2-spotted spider mite; test: 2-spotted spider mite test, dipped infested limabean plants; set-up: key: 0: no effect; 10-25% kill; 26-35% kill; 36-45% kill; 46-55% kill; 56-65% kill; 66-75% kill; 76-85% kill; 86-99% kill; 9: 100% kill
Experimental: as §1
Tetranychus urticae (OP-resistant strain), 2-spotted spider mite
Sieva limabean plants with primary leaves expanded to 7-8 cm are selected and cut back to one plant per pot. A small piece is cut from an infested leaf taken from the main colony and placed on each leaf of the test plants. This is done about 2 hours before treatment to allow the mites to move over to the test plant and to lay eggs. The size of the cut, infested leaf is varied to obtain about 100 mites per leaf. At the time of test treatment, the piece of leaf used to transfer the mites is removed and discarded. The newly mite-infested plants are dipped in the test solution for 3 seconds with agitation and set in the hood to dry. After 2 days one leaf is removed and mortality counts are made. After 5 days, another leaf is removed and observations are made of mortality of the eggs and/or newly emerged nymphs.
as §2

[5] = test system: Spodoptera eridania, 3rd instar larvae, southern armyworm; test: Southern armyworm 3rd instar test, dipped limabean leaf; set-up: key: 0: no effect; 10-25% kill; 26-35% kill; 36-45% kill; 46-55% kill; 56-65% kill; 66-75% kill; 76-85% kill; 86-99% kill; 9: 100% kill; conditions: for ARMYWORM Day 3: rating at 3 days; for ARMYWORM Day 5: rating at 5 days
Experimental: as §1
Spodoptera eridania, 3rd instar larvae, southern armyworm
A Sieva limabean leaf expanded to 7-8 cm in length is dipped in the test solution with agitation for 3 seconds and allowed to dry in a hood. The leaf is then placed in a 100 x 10 mm petri dish containing a damp filterpaper on the bottom and ten 3rd instar caterpillars. At 3 and 5 days, observations are made of mortality, reduced feeding, or any interference with normal molting.
as §2

[6] = test system: Spodoptera eridania, 3rd instar larvae, southern armyworm; test: Southern armyworm 7-day residual test; set-up: key: 0: no effect; 10-25% kill; 26-35% kill; 36-45% kill; 46-55% kill; 56-65% kill; 66-75% kill; 76-85% kill; 86-99% kill; 9: 100% kill; conditions: R designates Residual: 7-day residual foliage, concentration not given; for ARMYWORM Day 3 R: rating at 3 days; for ARMYWORM Day 5 R: rating at 5 days
Experimental: as §1
Spodoptera eridania, 3rd instar larvae, southern armyworm, 7-day residual
The limabean leaves treated in the above test are maintained under high intensity lamps in the greenhouse for 7 days. These lamps duplicate the effects of a bright sunny day in June in New Jersey and are kept on for 14 hour day length. After 7 days, the foliage is sampled and assayed as in the above-said test.
as §2

[7] = test system: Empoasca abrupta, adult, western potato leafhopper; test: Western potato leafhopper systemic uptake test; conditions: 100 ppm; systemic uptake; rating scale 0-9
Experimental: Empoasca abrupta, adult, western potato leafhopper Systemic Uptake
An emulsion containing 0.1 gm of the test material, 0.2 gm of Emulphor EL-620® emulsifier, 10 mL of acetone and 90 mL of water is prepared and diluted 10-fold with water to give a 100 ppm emulsion. Subsequent 10-fold dilutions are made with water as needed. Sieva limabean plants, with the primary leaves expanded to a length of 7-8 cm, are cut off at least 3 cm above the soil level to avoid contamination with soil bacteria which will cause decay of the stem during the test. The cut stem is placed in the test emulsion and wrapped with a bit of cotton to hold the stem off the bottom of the bottle and to limit evaporation. The treated stem is maintained for 3 days at 27°C to allow the test compound to be taken up into the plant. Following this, one leaf is removed from the plant and placed in a 100 x 10 mm petri dish containing a moist filter paper and about 10 adult leafhoppers as described above. Mortality counts are made after 2 days.
as §2

[8] = test system: Diabrotic undecimpunctata howardi, 3rd instar southern corn rootworm; test: Southern corn rootworm soil test; set-up: key: 0: no effect; 10-25% kill; 26-35% kill; 36-45% kill; 46-55% kill; 56-65% kill; 66-75% kill; 76-85% kill; 86-99% kill; 9: 100% kill; conditions: mortality rating after 6 days
Experimental: Diabrotic undecimpunctata howardi, 3rd instar southern corn rootworm
One cc of fine talc is placed in a 30 mL wide-mouth screw-top glass jar. One mL of the appropriate acetone test solution is pipetted onto the talc so as to provide 1.25 and 0.25 mg of active ingredient per jar. The jars are set under a gentle air flow until the acetone is evaporated. The dried talc is loosened, 1 cc of millet seed is added to serve as food for the insects and 25 mL of moist soil is added to each jar. The jar is capped and the contents thoroughly mixed on a Vortex Mixer. Following this, ten 3rd instar rootworms are added to each jar and the jars are loosely capped to allow air exchange for the larvae. The treatments are held for 6 days when mortality counts are made. Missing larvae are presumed dead, since they decompose rapidly and can not be found. The concentrations used in this test correspond approximately to 50 and 10 kg/ha, respectively.
as §2

[9] = test system: Empoasca abrupta, adult, western potato leafhopper; test: Western potato leafhopper contact test, dipped limabean leaf; set-up: key: 0: no effect; 10-25% kill; 26-35% kill; 36-45% kill; 46-55% kill; 56-65% kill; 66-75% kill; 76-85% kill; 86-99% kill; 9: 100% kill; conditions: mortality rating after 2 days
Experimental: as §1
Empoasca abrupta, adult, western potato leafhopper
A Sieva limabean leaf about 5 cm long is dipped in the test solution for 3 seconds with agitation and placed in a hood to dry. The treated leaf is placed in a 100 x 10 mm petri dish containing a moist filter paper and about 10 adult leafhoppers are added. After 2 days, mortality counts are made.
as §2

[10] = test system: Heliothis virescens, 3rd instar tobacco budworm; test: Tobacco budworm 3rd instar test, dipped cotton cotyledons; set-up: key: 0: no effect; 10-25% kill; 26-35% kill; 36-45% kill; 46-55% kill; 56-65% kill; 66-75% kill; 76-85% kill; 86-99% kill; 9: 100% kill; conditions: mortality rating after 3 days
Experimental: as §1
Heliothis virescens, 3rd instar tobacco budworm
Cotton cotyledons are dipped in the test solution and allowed to dry in a hood. When dry, each is cut into quarters and ten sections are placed individually in 30 mL plastic medicine cups containing a 5-7mm long piece of damp dental wick. One 3rd instar caterpillar is added to each cup and the cup is sealed with MYLAR® film. Treatments are maintained for 3 days before a mortality count and observation of reduction in feeding damage are made.
as §2

[11] = 300 ppm, adult mites, rating scale 0-9
[12] = 300 ppm, mite eggs, rating scale 0-9
[13] = 300 ppm, mite nymphs, rating scale 0-9

SMILES | TOBACCO BUDWORM Egg ([1]; 100 ppm) | TOBACCO BUDWORM Egg ([1]; 1000 ppm) | APHIDS ([2]; rating scale 0-9) | ARMYWORM Stem Sys [3] | OP-RESISTANT MITES Adult [4, 11] | OP-RESISTANT MITES Egg [4, 12] | OP-RESISTANT MITES Nymph [4, 13] | ARMYWORM Day 3 ([5]; 10 ppm) | ARMYWORM Day 5 ([5]; 10 ppm) | ARMYWORM Day 3 ([5]; 100 ppm) | ARMYWORM Day 5 ([5]; 100 ppm) | ARMYWORM Day 3 ([5]; 1000 ppm) | ARMYWORM Day 5 ([5]; 1000 ppm) | ARMYWORM Day 3 R [6] | ARMYWORM Day 5 R [6] | SOUTHERN CORN ROOTWORM ([8]; 50 (ppm as headed)) | further results
N#Cc1c(Br)c(C(F)(F)F)n(CSC2=NCCCCN2)c1-c1ccc(Cl)cc1 [Example 11] | 3 (36-45% kill) | 5 (56-65% kill) | 0 | 9 (100% kill) | 0 | 0 | 0 | 9 (100% kill) | 9 (100% kill) | 9 (100% kill) | 9 (100% kill) | 9 (100% kill) | 9 (100% kill) | 9 (100% kill) | 9 (100% kill) | 0 | LEAFHOPPER Systemic [7]: 9 (100% kill)
CCN=C(NCC)SCn1c(-c2ccc(Cl)cc2)c(C#N)c(Br)c1C(F)(F)F [Example 12] |  | 0 | 0 | 0 | 0 | 0 | 0 | 9 (100% kill) | 9 (100% kill) | 9 (100% kill) | 9 (100% kill) | 9 (100% kill) | 9 (100% kill) | 9 (100% kill) | 9 (100% kill) |  | SOUTHERN CORN ROOTWORM ([8]; 1 (ppm as headed)): 0
N#Cc1c(Br)c(C(F)(F)F)n(CSC2=NCCCN2)c1-c1ccc(Cl)cc1 [Example 8] | 0 | 0 |  | 9 (100% kill) |  |  |  | 0 |  | 9 (100% kill) |  | 9 (100% kill) |  | 9 (100% kill) | 9 (100% kill) | 0 | APHIDS ([2]; spray, mortality rating after 2 days): 0; OP-RESISTANT MITES Adult ([4]; 10 ppm, mortality rating after 2 days): 0; OP-RESISTANT MITES Nymph ([4]; 10 ppm, rating after 5 days): 0; OP-RESISTANT MITES Adult ([4]; 100 ppm, mortality rating after 2 days): 9 (100% kill); OP-RESISTANT MITES Nymph ([4]; 100 ppm, rating after 5 days): 8 (86-99% kill); OP-RESISTANT MITES Adult ([4]; 300 ppm, mortality rating after 2 days): 9 (100% kill); OP-RESISTANT MITES Egg ([4]; 300 ppm, rating after 5 days): 0; OP-RESISTANT MITES Nymph ([4]; 300 ppm, rating after 5 days): 0; LEAFHOPPER Contact ([9]; 10 ppm): 0; LEAFHOPPER Contact ([9]; 100 ppm): 8 (86-99% kill)
N#Cc1c(Br)c(Br)n(CSCc2ccccc2)c1Br [Example 40] |  | 0 |  | 0 |  |  |  | 0 | 0 | 0 | 0 | 9 (100% kill) | 9 (100% kill) | 0 |  | 0 | TOBACCO BUDWORM 3rd Instar ([10]; 100 ppm): 0; TOBACCO BUDWORM 3rd Instar ([10]; 1000 ppm): 0
